Counter-ions that a name gives are not always drawn.
Test system: trypsin from L. alexandri pyloric cecum (Pacamã trypsin)
Experiment: p-nitroaniline release at […] nm, Lineweaver-Burk
Type: biochemical, Lophiosilurus alexandri
Conditions: optimum pH (9.0) and temperature (50 °C), 90 min, BAPNA 0-6.0 mM

Km: 517 µM
SMILES: N=C(N)NCCCC(NC(=O)c1ccccc1)C(=O)Nc1ccc([N+](=O)[O-])cc1 (racemic) [BAPNA, Nα-Benzoyl-D,L-arginine 4-nitroanilide hydrochloride]

From PMC5613698 (Biochemistry and Biophysics Reports, 2016)
